Test results as given in US4130647A, “Methods for treating congestive heart failure and ischemic heart disease” (priority 1977, dated 1978).
Where “and” joins values, the source holds several entries; their conditions need not be identical. Identical values can stand only once. Like-named read-outs stand apart in the source and are kept apart here.

Columns and labels:
[1] = tested on: contractile state of the heart; settings: experimental studies; cited from earlier work
[2] = tested on: patients; settings: cited from earlier work
[3] = tested on: forearm blood flow, vascular resistance and venous tone of patients with heart failure; settings: for forearm blood flow: control 1.29 ± 0.14; for forearm vascular resistance: control 88.9 ± 13.8
[4] = tested on: enzyme phosphodiesterase in vascular smooth muscle; settings: cited from earlier work
[5] = tested on: patients; set-up: species or system human; settings: in vivo
Description: A finding of major importance which emerged from this investigation concerns the relative effects of prazosin on both venous and arteriolar smooth muscle. Prazosin is used clinically as an antihypertensive agent and the arterial dilating actions have been confirmed previously in experimental studies [Cohen, et al., J. Clin. Pharmacol., 10, 408 (1970)]. The important finding delineated herein that prazosin also effects substantial venodilation was of considerable physiologic significance since this unique action on systemic veins allows salutory extension of oral prazosin to the ambulatory therapy of chronic congestive heart failure. In this regard, in patients with normal left ventricular filling pressures, the prazosin-induced venous pooling and decline in cardiac return may lower ventricular preload to such a degree that the point of operation of the ventricle on the Frank-Starling relation is shifted substantially downward and to the left on its ascending limb with resultant decline in cardiac output despite lowered impedance. Furthermore, in the case of prazosin, the attenuation of reflex tachycardia by the agent in this circumstance of lowered stroke volume because of low preload, inhibits the principal regulatory mechanism which would otherwise compensate for the lowered stroke volume. […]

[6] = tested on: patients who had severe ischemic cardiomyopathy and heart failure; assay: Hemodynamic effects of oral prazosin in congestive heart failure (Example 1); assay type: in vivo, human; settings: for pressure.time per minute (index of myocardial oxygen demand): control 3293 ± 191
Description: The study comprised ten patients, six males and four females, mean age 51 years (range 46 to 62 years) who had severe ischemic cardiomyopathy and heart failure documented in each by cardiac catheterization and coronary arteriography. The duration of heart failure symptoms ranged from one to six years. All patients were receiving digoxin and diuretics, while seven were also taking long-acting nitrate preparations for the chronic unloading effects of these agents, Williams, et al., Am. J. Cardiol., 39, 84 (1977) and Amsterdam, et al., Circulation, 52 [Suppl. 2] 150 (1975).
Left ventriculography confirmed extensive abnormalities of segmental contraction in the appropriate area in each patient and the mean ejection fraction for this group of patients was 0.18 ± 0.03 (SEM). […] The remaining two patients were clinically functional class IV with resting dyspnea and were not able to undergo exercise evaluation.
Hemodynamics: All patients were studied in the post-absorptive state; and informed consent was obtained in each. All cardiac medications including digoxin, diuretics and long-acting nitrates were withheld for at least 24 hours prior to study.
Systemic arterial pressure was measured directly through an intra-arterial Teflon catheter placed into a brachial artery. Right atrial (RA), pulmonary artery (PA) and pulmonary artery wedge (PAW) pressures, and cardiac output (CO) by thermodilution were recorded with the Swan-Ganz catheter. Cardiac outputs were performed in triplicate (less than 10 percent variation) utilizing iced-water and computations were accomplished by a bed-side computer (Santa Barbara, Technology, Inc., Santa Barbara, Calif.).
Derived hemodynamic variables were calculated as follows: stroke work index (SWI) in gm-m/M^2 = SI × (AP-LVFP) × 0.0136 here SI = stroke index, AP = mean systemic arterial pressure and LVFP = left ventricular filling pressure either as the mean PAW or PA diastolic pressure, the particular method utilized for this variable remaining constant throughout the study for each patient; total systemic vascular resistance (TSVR) = 80 [(AP-RA)/CO] where 80 converts mm. Hg. to dynes sec. cm.^-5 and RA = mean RA pressure; pressure.time per minute (PTM) in mm. Hg. sec. per minute = AP × ET × HR where ET = left ventricular ejection time and HR = heart rate.

[7] = one hour post prazosin vs. control
[8] = 1 hour post prazosin, individual patients
[9] = 60 minutes post prazosin vs. control
[10] = 3 hours post prazosin, group mean
[11] = 3 hours post prazosin, individual patients
[12] = 6 hours post prazosin, group mean
[13] = 6 hours post prazosin, individual patients

COc1cc2nc(N3CCN(C(=O)c4ccco4)CC3)nc(N)c2cc1OC [prazosin]
effects on the contractile state of the heart [1]: neither direct nor sympathetically mediated indirect effects
tolerability in long-term administration ([2]; hypertensive patients): relatively well tolerated
excessive hypotension ([2]; in vivo): reported to occasionally occur
serologic side effects resembling hydralazine-induced lupus erythematosus ([2]; in vivo): no reports of serologic side effects
febrile polyarthritis ([2]; patient receiving prazosin for hypertension): reported in a single patient
forearm vascular resistance, patients responding ([3]; 30 minutes post prazosin): lowered by prazosin in all patients
ratio of percent reduction of forearm vascular resistance to percent decline in forearm venous tone ([3]; 30 minutes post prazosin): 0.49
change in forearm venous tone ([3]; 30 minutes post prazosin vs. control): -69%
forearm blood flow ([3]; 30 minutes post prazosin): 1.71 ± 0.25 ml./100 gm./minute
venous tone in the forearm ([3]; 30 minutes post prazosin, control 58.9 ± 13.8): 18.5 ± 3.9 ml./mm. Hg.
forearm vascular resistance ([3]; 30 minutes post prazosin): 58.4 ± 6.1 mm. Hg./ml./100 gm./min.
ratio of percent reduction of forearm vascular resistance to percent decline in forearm venous tone ([3]; 1 hour post prazosin): 0.67
forearm blood flow ([3]; 60 minutes post prazosin): 1.95 ± 0.33 ml./100 gm./minute
persistence of increase in forearm blood flow ([3]; 6 hours): remained increased for the entire 6 hours
change in forearm vascular resistance [3, 7]: -47%
forearm vascular resistance ([3]; one hour post prazosin): 47.9 ± 5.8 mm. Hg./ml./100 gm./min.
persistence of decline in forearm vascular resistance ([3]; six hours): persisted for the six hour study period
persistence of lowering of forearm venous tone ([3]; six hours): remained lowered at this level for the entire six hour observation period
cyclic GMP ([4]; myocardium): increased levels of cyclic GMP
cyclic AMP ([4]; vascular smooth muscle): accumulation of cyclic AMP
inhibition of phosphodiesterase ([4]; vascular smooth muscle): inhibition of the enzyme phosphodiesterase
syncope or other untoward effects [5]: no syncope or other untoward effects occurred
cardiac index, patients responding ([6]; 30 minutes post prazosin): increased in each patient
left ventricular filling pressure, patients responding ([6]; 30 minutes post prazosin): lowered in all 10 patients
Cardiac Index ([6]; 30 minutes post prazosin, group mean, control 2.07 ± 0.12): 2.62 ± 0.11 L/min./M^2
total systemic vascular resistance ([6]; 30 minutes post prazosin, group mean, control 2074 ± 183): 1448 ± 139 dynes sec. cm.^-5
stroke work index, direction of change ([6]; 30 minutes post prazosin, p<0.01): increased
Mean Systemic Arterial Pressure ([6]; 30 minutes post prazosin, control 95.3 ± 5.3): 86.1 ± 5.8 mm. Hg.
pressure.time per minute (index of myocardial oxygen demand) ([6]; 30 minutes post prazosin): 2992 ± 208 mm. Hg. sec. per minute
CI (cardiac index), mean ([6]; 1 hour (60 minutes) post prazosin, group mean, control 2.07): 2.94 ± 0.10 L/min./M^2 and 2.9 L/min./M^2
SWI (stroke work index), mean ([6]; 1 hour (60 minutes) post prazosin, group mean, control 23.3): 31.4 ± 5.1 gm.-m/M^2 and 31.4 gm.-m/M^2
LVFP (left ventricular filling pressure), mean ([6]; 1 hour (60 minutes) post prazosin, group mean, control 30.2): 17.7 ± 1.4 mm. Hg. and 17.7 mm. Hg.
HR (heart rate), mean ([6]; 1 hour post prazosin, group mean, control 84): 84 beats per minute
AP (mean systemic arterial pressure), mean ([6]; 1 hour post prazosin, group mean, control 95.3): 77.8 mm. Hg.
TSVR (total systemic vascular resistance), mean ([6]; 1 hour post prazosin, group mean, control 2074): 1156 ± 83 dynes sec. cm.^-5 and 1156 dynes sec. cm.^-5
AP (mean systemic arterial pressure) [6, 8]: 86 mm. Hg. and 62 mm. Hg. and 92 mm. Hg. and 69 mm. Hg. and 91 mm. Hg. and 77 mm. Hg. and 67 mm. Hg. and 64 mm. Hg. and 60 mm. Hg. and 110 mm. Hg.
CI (cardiac index) [6, 8]: 2.9 L/min./M^2 and 2.8 L/min./M^2 and 3.2 L/min./M^2 and 2.6 L/min./M^2 and 3.1 L/min./M^2 and 2.5 L/min./M^2 and 3.5 L/min./M^2
LVFP (left ventricular filling pressure) [6, 8]: 16 mm. Hg. and 19 mm. Hg. and 25 mm. Hg. and 11 mm. Hg. and 12 mm. Hg. and 18 mm. Hg. and 24 mm. Hg. and 21 mm. Hg. and 20 mm. Hg. and 13 mm. Hg.
SWI (stroke work index) [6, 8]: 41 gm.-m/M^2 and 23 gm.-m/M^2 and 34 gm.-m/M^2 and 24 gm.-m/M^2 and 44 gm.-m/M^2 and 29 gm.-m/M^2 and 17 gm.-m/M^2 and 15 gm.-m/M^2 and 20 gm.-m/M^2 and 68 gm.-m/M^2
TSVR (total systemic vascular resistance) [6, 8]: 1445 dynes sec. cm.^-5 and 1038 dynes sec. cm.^-5 and 1067 dynes sec. cm.^-5 and 920 dynes sec. cm.^-5 and 1549 dynes sec. cm.^-5 and 1011 dynes sec. cm.^-5 and 1477 dynes sec. cm.^-5 and 908 dynes sec. cm.^-5 and 836 dynes sec. cm.^-5 and 1304 dynes sec. cm.^-5
HR (heart rate) ([6]; 1 hour post prazosin, oral 2 to 5 mg (one patient 7 mg), individual patients 1-10): 66 beats per minute and 72 beats per minute and 90 beats per minute and 105 beats per minute and 62 beats per minute and 87 beats per minute and 86 beats per minute and 102 beats per minute
change in cardiac index (maximal increase) [6, 9]: +42%
change in left ventricular filling pressure [6, 9]: -41%
change in stroke work index (peak) [6, 9]: +35%
AP (mean systemic arterial pressure), mean [6, 10]: 78.6 mm. Hg.
CI (cardiac index), mean [6, 10]: 2.7 L/min./M^2
HR (heart rate), mean [6, 10]: 81 beats per minute
LVFP (left ventricular filling pressure), mean [6, 10]: 17.9 mm. Hg.
SWI (stroke work index), mean [6, 10]: 28.7 gm.-m/M^2
TSVR (total systemic vascular resistance), mean [6, 10]: 1303 dynes sec. cm.^-5
AP (mean systemic arterial pressure) [6, 11]: 79 mm. Hg. and 67 mm. Hg. and 90 mm. Hg. and 72 mm. Hg. and 80 mm. Hg. and 77 mm. Hg. and 68 mm. Hg. and 69 mm. Hg. and 104 mm. Hg.
CI (cardiac index) [6, 11]: 3.1 L/min./M^2 and 2.4 L/min./M^2 and 2.0 L/min./M^2 and 2.9 L/min./M^2 and 2.3 L/min./M^2 and 2.8 L/min./M^2 and 3.3 L/min./M^2 and 2.5 L/min./M^2
HR (heart rate) [6, 11]: 66 beats per minute and 70 beats per minute and 85 beats per minute and 100 beats per minute and 61 beats per minute and 72 beats per minute and 112 beats per minute and 80 beats per minute and 99 beats per minute
LVFP (left ventricular filling pressure) [6, 11]: 21 mm. Hg. and 23 mm. Hg. and 14 mm. Hg. and 11 mm. Hg. and 20 mm. Hg. and 22 mm. Hg. and 25 mm. Hg. and 18 mm. Hg. and 16 mm. Hg.
SWI (stroke work index) [6, 11]: 45 gm.-m/M^2 and 25 gm.-m/M^2 and 32 gm.-m/M^2 and 22 gm.-m/M^2 and 36 gm.-m/M^2 and 26 gm.-m/M^2 and 16 gm.-m/M^2 and 17 gm.-m/M^2 and 24 gm.-m/M^2 and 44 gm.-m/M^2
TSVR (total systemic vascular resistance) [6, 11]: 1222 dynes sec. cm.^-5 and 1307 dynes sec. cm.^-5 and 1125 dynes sec. cm.^-5 and 1069 dynes sec. cm.^-5 and 1484 dynes sec. cm.^-5 and 1294 dynes sec. cm.^-5 and 1850 dynes sec. cm.^-5 and 1135 dynes sec. cm.^-5 and 840 dynes sec. cm.^-5 and 1708 dynes sec. cm.^-5
persistence of reduction of pressure.time per minute ([6]; 6 hours): remained diminished for 6 hours
persistence of reduction of total systemic vascular resistance ([6]; 6 hours): significant (p<0.001) reduction in TSVR persisted for the entire 6 hour observation
AP (mean systemic arterial pressure), mean [6, 12]: 86.0 mm. Hg.
CI (cardiac index), mean [6, 12]: 2.4 L/min./M^2
HR (heart rate), mean [6, 12]: 75 beats per minute
LVFP (left ventricular filling pressure), mean [6, 12]: 19.7 mm. Hg.
SWI (stroke work index), mean [6, 12]: 29.9 gm.-m/M^2
TSVR (total systemic vascular resistance), mean [6, 12]: 1639 dynes sec. cm.^-5
AP (mean systemic arterial pressure) [6, 13]: 75 mm. Hg. and 80 mm. Hg. and 100 mm. Hg. and 102 mm. Hg. and 85 mm. Hg. and 74 mm. Hg.
CI (cardiac index) [6, 13]: 3.1 L/min./M^2 and 2.4 L/min./M^2 and 2.6 L/min./M^2 and 2.2 L/min./M^2 and 2.1 L/min./M^2
HR (heart rate) [6, 13]: 70 beats per minute and 72 beats per minute and 90 beats per minute and 56 beats per minute and 78 beats per minute and 86 beats per minute
LVFP (left ventricular filling pressure) [6, 13]: 13 mm. Hg. and 20 mm. Hg. and 23 mm. Hg. and 15 mm. Hg. and 18 mm. Hg. and 29 mm. Hg.
SWI (stroke work index) [6, 13]: 38 gm.-m/M^2 and 27 gm.-m/M^2 and 30 gm.-m/M^2 and 45 gm.-m/M^2 and 25 gm.-m/M^2 and 15 gm.-m/M^2
TSVR (total systemic vascular resistance; head TSVB) [6, 13]: 1158 dynes sec. cm.^-5 and 1550 dynes sec. cm.^-5 and 1455 dynes sec. cm.^-5 and 2066 dynes sec. cm.^-5 and 1638 dynes sec. cm.^-5 and 1973 dynes sec. cm.^-5
persistence of reduction of left ventricular filling pressure ([6]; entire study period): remained significantly (p<0.001) reduced throughout the entire study period
total systemic vascular resistance, patients responding ([6]; following prazosin): reduced in each patient
change in heart rate ([6]; following prazosin, control 84 ± 5.1 beats per minute, p>0.05): not statistically different
change in pressure.time per minute [6, 7]: -15%
change in total systemic vascular resistance [6, 7]: -44
pressure.time per minute (index of myocardial oxygen demand) ([6]; one hour post prazosin): 2793 ± 188 mm. Hg. sec. per minute
response in systemic blood pressure or left ventricular filling pressure ([6]; one patient, 2 hours following first dose): no alteration in systemic blood pressure or left ventricular filling pressure
persistence of increase in cardiac index ([6]; six hours vs. control): remaining significantly (p<0.01) elevated at six hours
persistence of lowering of mean systemic arterial pressure ([6]; throughout the observation period): remained significantly (p<0.001 or p<0.01) lowered throughout the observation period
change in mean systemic arterial pressure ([6]; two hours post prazosin vs. control): -20%
mean systemic arterial pressure, maximal hypotensive effect ([6]; two hours post prazosin, control 95.3 ± 5.3): 76.2 ± 3.8 mm. Hg.
